In patent publication US20240158390A1, “OTHER HETEROAROMATIC COMPOUNDS HAVING ACTIVITY AGAINST RSV” (Janssen Sciences Ireland Unlimited Company, priority 2019, published 2024):

Tests used:
rgRSV224 virus = assay: Antiviral activity: rgRSV224 (GFP) replication in HeLa cells; assay type: cell-based; conditions: human respiratory syncytial virus, 72 h, read-out: RSV HELA EC50 (μM)
Description: (§1) Black 384-well clear-bottom microtiter plates (Corning, Amsterdam, The Netherlands) were filled via acoustic drop ejection using the echo liquid handler (Labcyte, Sunnyvale, California). 200 nL of compound stock solutions (100% DMSO) were transferred to the assay plates. 9 serial 4-fold dilutions of compound were made, creating per quadrant the same compound concentration. The assay was initiated by adding 10 μL of culture medium to each well (RPMI medium without phenol red, 10% FBS-heat inactivated, 0.04% gentamycin (50 mg/mL). All addition steps are done by using a multidrop dispenser (Thermo Scientific, Erembodegem, Belgium). Next, rgRSV224 virus (MOI=1) diluted in culture medium was added to the plates. rgRSV224 virus is an engineered virus that includes an additional GFP gene (Hallak LK, Spillmann D, Collins PL, Peeples ME. Glycosaminoglycan sulfation requirements for respiratory syncytial virus infection; Journal of virology (2000), 74(22), 10508-13) and was in-licensed from the NIH (Bethesda, MD, USA). Finally, 20 μL of a HeLa cell suspension (3,000 cells/well) were plated. Medium, virus- and mock-infected controls were included in each test. The wells contain 0.05% DMSO per volume. Cells were incubated at 37° C. in a 5% CO2 atmosphere. Three days post-virus exposure, viral replication was quantified by measuring GFP expression in the cells by an in house developed MSM laser microscope (Tibotec, Beerse, Belgium). The EC50 was defined as the 50% inhibitory concentration for GFP expression. In parallel, compounds were incubated for three days in a set of white 384-well microtiter plates (Corning) and the cytotoxicity of compounds in HeLa cells was determined by measuring the ATP content of the cells using the ATPlite kit (Perkin Elmer, Zaventem, Belgium) according to the manufacturer's instructions. The CC50 was defined as the 50% concentration for cytotoxicity.

in vitro = assay type: cell-based; conditions: human
Description: as §1

Structure (SMILES) | EC50 (rgRSV224 virus) | CC50 at 3 days (in vitro)
C[C@@H]1c2ccccc2CCN1C(=O)c1cc(C2CC2)c2nc(-c3ccc(N4CC[C@H](C(=O)O)C4)cc3F)oc2c1 [Compound 21, (3S)-1-(4-{4-Cyclopropyl-6-[(1R)-1-methyl-1,2,3,4-tetrahydroisoquinoline-2-carbonyl]-1,3-benzoxazol-2-yl}-3-fluorophenyl)pyrrolidine-3-carboxylic acid] | 0.01 µM | 51.5 µM
C[C@@H]1c2ccccc2CCN1C(=O)c1cc(C2CC2)c2nc(-c3ccc(N4CC[C@H](C(N)=O)C4)cc3F)oc2c1 [Compound 22, (3S)-1-(4-{4-Cyclopropyl-6-[(1R)-1-methyl-1,2,3,4-tetrahydroisoquinoline-2-carbonyl]-1,3-benzoxazol-2-yl}-3-fluorophenyl)pyrrolidine-3-carboxamide] | 0.01 µM | 54.8 µM
C[C@@H]1c2ccccc2CCN1C(=O)c1cc(C2CC2)c2nc(-c3ccc(NC(=O)N4CC[C@@H](O)C4)cc3F)oc2c1 [Compound 23, (R)-N-(4-(4-cyclopropyl-6-((R)-1-methyl-1,2,3,4-tetrahydroisoquinoline-2-carbonyl)benzo[d]oxazol-2-yl)-3-fluorophenyl)-3-hydroxypyrrolidine-1-carboxamide] | 0.05 µM | 47.8 µM
C[C@@H]1c2ccccc2CCN1C(=O)c1cc(C2CC2)c2nc(-c3ccc(NC(=O)N4CC[C@@H](O)C4)cc3F)sc2c1 [Compound 24, (R)-N-(4-(4-cyclopropyl-6-((R)-1-methyl-1,2,3,4-tetrahydroisoquinoline-2-carbonyl)benzo[d]thiazol-2-yl)-3-fluorophenyl)-3-hydroxypyrrolidine-1-carboxamide] | 0.17 µM | 54 µM
C[C@@H]1c2ccccc2CCN1C(=O)c1cc(-c2ccccc2)c2cn(-c3ccc(N4C[C@H](O)[C@@H](O)C4)cc3F)nc2c1 [Compound 25, (2-(4-((3S,4S)-3,4-dihydroxypyrrolidin-1-yl)-2-fluorophenyl)-4-phenyl-2H-indazol-6-yl)((R)-1-methyl-3,4-dihydroisoquinolin-2 (1H)-yl)methanone] | 0.47 µM | 19.4 µM
